Results reported in PubChem BioAssay AID720590 (Broad Institute, 2013).
Activity calls are given as the source filed them. The rule behind the calls is not given here.

target: Mycobacterium tuberculosis BioA (adenosylmethionine-8-amino-7-oxononanoate aminotransferase); assay: inhibition of M. tuberculosis BioA aminotransferase – biochemical, plate reader, dry powder samples, dose response (AID 720590); details: M. tuberculosis BioA enzyme assay

Row | SMILES | AC50
1 | COc1cccc(C(=O)N2CCN(c3ccc(C(C)=O)cc3)CC2)c1 | 602 nM
2 | Cc1ccc(/C=C(\CCCC(=O)O)c2nc3ccccc3s2)cc1[N+](=O)[O-] | 953 nM
3 | O=C(COc1ccc2ccc(=O)oc2c1)N1CCN(c2ccc(F)cc2)CC1 | 162 nM
4 | Cc1ccc(/C=C(\CCC(=O)O)c2nc3ccccc3s2)cc1 | 7240 nM
5 | CCc1ccc(N2CCN(C(=O)c3ccc4c(c3)OCO4)CC2)cc1 | > 20000 nM (inactive)
6 | CC(=O)c1ccc(N2CCN(C(=O)c3ccc4c(c3)OCCO4)CC2)cc1 | 2830 nM
7 | O=C(Nc1cccc(F)c1)N1CCN(c2ccccc2)CC1 | 4330 nM
8 | O=C(c1ccc2c(c1)OCO2)N1CCN(c2ccccc2)CC1 | > 20000 nM (inactive)
9 | O=C(c1ccc2c(c1)OCO2)N1CCN(c2ccc(Cl)cc2)CC1 | 4320 nM
10 | O=C(O)CC/C(=C\c1ccc([N+](=O)[O-])cc1)c1nc2ccccc2s1 | 988 nM
11 | CC(=O)c1ccc(N2CCN(C(=O)c3cccc(Cl)c3)CC2)cc1 | 95.5 nM
12 | Cc1cc(C)n2nc(C(=O)Nc3cccnc3)cc2n1 | 150 nM
13 | CCN(CC)c1ccc2cc(C(=O)c3cccs3)c(=O)oc2c1 | < 80 nM
14 | O=C(Nc1ccc2snnc2c1)N1CCN(c2ccccc2)CC1 | < 80 nM
15 | O=C(Nc1ccc2snnc2c1)N1CCCCC1 | 1460 nM
16 | Cc1ccc(-c2cc(C(F)(F)F)n3nc(C(=O)Nc4cccnc4)cc3n2)cc1 | < 80 nM
17 | Cc1ccccc1/C=C(\CCC(=O)O)c1nc2ccccc2s1 | 7620 nM
18 | COc1ccc(C(=O)N2CCN(c3ccc(C(C)=O)cc3)CC2)cc1 | 1280 nM
19 | Cc1ccc(/C=C(\CCC(=O)O)c2nc3ccccc3s2)cc1[N+](=O)[O-] | < 80 nM
20 | O=C(Nc1ccc(F)cc1)N1CCN(c2ccccc2)CC1 | 6630 nM
21 | CC(=O)c1ccc(N2CCN(C(=O)c3cccnc3)CC2)cc1 | 2040 nM
22 | O=C(c1ccc2c(c1)OCO2)N1CCN(Cc2ccccc2)CC1 | > 20000 nM (inactive)
23 | CCOC(=O)N1CCN(C(=O)Nc2ccc3snnc3c2)CC1 | 424 nM

Row | SMILES | AC50
24 | CC(=O)c1ccc(N2CCN(C(=O)c3ccc4c(c3)OCO4)CC2)cc1 | < 80 nM
25 | CC(=O)c1ccc(N2CCN(Cc3ccc4c(c3)OCO4)CC2)cc1 | 133 nM
26 | COc1cccc(NC(=O)N2CCN(c3ccccc3)CC2)c1 | > 20000 nM (inactive)
27 | O=C(O)CC/C(=C\c1ccccc1[N+](=O)[O-])c1nc2ccccc2s1 | > 20000 nM (inactive)
28 | O=C(Nc1ccc2snnc2c1)N1CCOCC1 | 896 nM
29 | CC(=O)c1ccc(N2CCN(C(=O)c3ccc(Br)cc3)CC2)c(F)c1 | < 80 nM
30 | CC(=O)c1ccc(N2CCN(C(=O)c3ccc4ncsc4c3)CC2)cc1 | 246 nM
31 | COc1ccc(N2CCN(C(=O)c3ccc4c(c3)OCO4)CC2)cc1 | 5320 nM
32 | CCc1ccc(C(=O)N2CCN(Cc3ccc4c(c3)OCO4)CC2)cc1 | > 20000 nM (inactive)
33 | O=C(Nc1cccnc1)c1cc2nc(-c3cccs3)cc(C(F)(F)F)n2n1 | 87.1 nM
34 | CC(=O)c1ccc(N2CCN(C(=O)c3ccc(C)cc3)CC2)cc1 | 746 nM
35 | CC(C)(C)c1ccc(C(=O)N2CCN(c3ccc4c(c3)OCO4)CC2)cc1 | > 20000 nM (inactive)
36 | CC(=O)c1ccc(N2CCN(C(=O)c3ccc(F)cc3)CC2)cc1 | 300 nM
37 | CC(=O)c1ccc(N2CCN(C(=O)c3ccc(Cl)cc3)CC2)cc1 | 751 nM
38 | COc1ccc(-c2cc(C(F)(F)F)n3nc(C(=O)Nc4cccnc4)cc3n2)cc1 | < 80 nM
39 | O=C(Nc1cccnc1)c1cnn2c(C(F)F)cc(C3CC3)nc12 | 252 nM
40 | COC(=O)c1c(C(=O)OC)c(-c2cccc(F)c2)n2c1CS(=O)C2 (stereo unspecified) | 115 nM
41 | COc1cccc(NC(=O)CCC2CCN(C(=O)c3ccc(C(C)=O)s3)CC2)c1 | 225 nM
42 | Cc1cc(C)n2nc(C(=O)Nc3cccnc3)nc2n1 | 673 nM
43 | CC(=O)c1ccc(N2CCN(C(=O)c3cccc(F)c3)CC2)cc1 | 731 nM
44 | CC(=O)c1ccc(N2CCN(C(=O)c3ccccc3)CC2)cc1 | 161 nM
45 | O=C(Nc1ccc(Cl)c(-c2nc3ccccc3[nH]2)c1)c1cccnc1 | 181 nM
46 | COc1cc(/C=C/C(=O)Nc2cccnc2)cc(OC)c1OC | 107 nM

same assay, conditions: M. tuberculosis BioA enzyme assay, at 10 µM (top of the series)

Row | SMILES | activity change, negative = inhibition
47 | O=C(Nc1ccncc1)c1cc2nc(C3CC3)cc(C(F)F)n2n1 | inactive
48 | Cc1nc2cc(NC(=O)N3CCN(c4ccccc4)CC3)ccc2o1 | inactive
49 | O=C(Nc1ccc(Cl)cc1)c1cc2nc(C3CC3)cc(C(F)(F)F)n2n1 | inactive
50 | COc1ccc(NC(=O)N2CCN(c3ccccc3)CC2)cc1 | inactive
51 | O=C(Nc1cccnc1)c1cnn2c(C(F)(F)F)cc(-c3ccccc3)nc12 | inactive
52 | O=C(Nc1ccc2[nH]ccc2c1)N1CCN(c2ccccc2)CC1 | inactive
53 | Cc1ccc(NC(=O)N2CCN(c3ccccc3)CC2)cc1 | inactive
54 | O=C(c1ccc2c(c1)OCO2)N1CCN(c2ccc(F)cc2)CC1 | inactive
55 | O=C(Nc1ccccc1)N1CCN(c2ccccc2)CC1 | inactive
56 | Cc1nc2ccc(NC(=O)N3CCN(c4ccccc4)CC3)cc2s1 | inactive
